“And” between values parts separate entries of the source, which are not always exact repeats. Equal values may be shown once. Blank lines part the entries; values can stand above or below the compound they belong to.
System: 323965-272-R-J2-PDC complex spheroid growth, % test/control
Test: Anticancer human tumor 323965-272-R-J2-PDC patient-derived pancreatic carcinoma cell line growth inhibition [Asc]
Settings: for viability, T/C: stronger effect = lower value
Experimental: Multicellular complex tumor spheroid response to apoptosis pathway targeting inhibitors Alrizomadlin, Pelcitoclax, and Dasminapant in combination with a variety of drugs and investigational agents in selected tumor cell lines
The MDM2 inhibitor alrizomadlin, the Bcl-2/Bcl-xL inhibitor pelcitoclax, and the IAPs inhibitor dasminapant were evaluated both individually and in combination with standard of care and investigational anticancer small molecules within a complex spheroid model of solid tumors. . Complex spheroids include a stromal component modeled by human endothelial cells (HUVEC) and fibroblasts modeled by human mesenchymal stem cells (MSCs). The concentration ranges selected for each drug and investigational agent were based upon clinically achievable concentrations if the clinical Cmax of the agent was known.
Compounds. The drugs and investigational agents: alrizomadlin (APG-115; NSC831270), pelcitoclax (APG-1252; NSC835773), dasminapant (APG-1387;NSC834197), TAK-243 (NSC785004), copanlisib (NSC809693), olaparib (NSC753686), talazoparib (NSC767125), cobimetinib (NSC 768068), eltanexor (KPT-8602, NSC 794443), abemaciclib (NSC 768073), sotorasib (NSC818433), adagrasib (NSC 831453), MRTX-1133 (NSC 836407), Iadademestat (ORY1001, NSC 806812), and RMC-4630 (NSC839698), were obtained from the NCI Developmental Therapeutics Program Chemical Repository. The FDA-approved anticancer drug set is available from the Developmental Therapeutics Program at https://dtp.cancer.gov/organization/dscb/obtaining/available plates.htm. […] The stock solutions were prepared in dimethyl sulfoxide (DMSO, Sigma-Aldrich, St. Louis, MO, cat. D2650) at 800-fold the tested concentration and stored at -70 degrees C prior to their use. All drugs and investigational agents were tested over a range starting from a high concentration at or near the clinical Cmax and decreasing in half-log increments. If the clinical Cmax for an agent had not been determined, the highest concentration tested was 10 microM.
The patient-derived cancer (PDC) cell lines include five colon adenocarcinomas: 186277-243-T-J2-PDC, 616215-338-R-J1-PDC, 439559-082-T-J2-PDC, 463943-066-T-J2-PDC, and 519858-162-T-J1-PDC; three pancreatic carcinomas: 323965-272-R-J2-PDC, 521955-158-R6-J3-PDC, and 521955-158-R2-J5-PDC; two uterine sarcomas: 327498-152-R-J2-PDC and 993429-296-R-J1-PDC; two rhabdomyosarcomas: 755483-174-R-J1-PDC and 772245-204-R-J1-PDC; two soft tissue sarcomas: 126254-015-R-J1-PDC and 494315-158-R-J1-PDC; two malignant fibrous histiocytomas: 317291-083-R-J1-PDC and 596521-263-R-J1-PDC; two breast carcinomas: 171881-019-R-J1-PDC and 885512-296-R-J2-PDC; and one ovarian carcinoma: 6556581-035-R-J-PDC were obtained from the NCI PDMR, (https://pdmr.cancer.gov). The established cell lines HSSY-2 synovial sarcoma (RRID:CVCL 8719), SYO-1 synovial sarcoma (RRID:CVCL_7146), MPNST malignant peripheral neural sheath tumor were obtained from the Sloan Kettering Institute. The following established cell lines were purchased from the American Type Culture Collection (ATCC, Manassas, VA), Sor the received from the NCI repository:, PANC-1 pancreatic carcinoma (CRL-1469, RRID:CVCL_0480), OVCAR-5 ovarian carcinoma (RRID:CVCL_1628), OVCAR-8 ovarian carcinoma (RRID:CVCL_1629), , MCF-7 breast carcinoma (CRL-12584, RRID:CVCL_0031), MDA-MB-231 breast carcinoma (CRL-12532, RRID:CVCL_0062), NCI-H1876 small cell lung carcinoma (CRL-5902, RRID:CVCL_1503), NCI-H510A small cell lung carcinoma (HTB-184, RRID:CVCL_1565), NCI-H1417 (CRL-5869, RRID:CVCL_1469), and NCI-H196 small cell lung carcinoma (CRL-5823, RRID:CVCL_1509). Dr. Peter Houghton (Greehey Children's Cancer Research Institute, University of Texas Health Science Center, San Antonio, TX) provided Rh-18 rhabdomyosarcoma (RRID:CVCL_1659). Pooled donor human umbilical vein endothelial cells (HUVEC, Lonza, cat. CC-2519) and human mesenchymal stem cells (hMSC, Lonza, cat. PT-2501) were purchased from Lonza (Walkersville, MD).
Cell Culture. […]
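Note: compound exposure lasted 7 days starting three days after spheroid seeding.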
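Throughout, for viability, T/C: 100% = DMSO vehicle control wells with viability set relative to vehicle.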

- IC50 (curve of first compound, second compound 0.0316 µM): 1610 nM
- IC50 (curve of first compound, second compound 0.1 µM): 981 nM
- IC50 (curve of first compound, second compound 0.316 µM): 809 nM
- IC50 (curve of first compound, second compound 1 µM): 281 nM
- IC50 (curve of first compound, second compound 3.16 µM): 85.9 nM
- IC50 (curve of first compound, second compound 10 µM): 59.2 nM
Compound: Cc1nc(N2CCC3(CC2)COC(C)C3N)c(CO)nc1Sc1ccnc(N)c1Cl (centres undefined) + Cc1c(S(C)(=O)=O)c(-c2cc(F)cc(N3CCN(c4ccc(NS(=O)(=O)c5ccc(NC(CCN6CCC(C(=O)OCCCP(=O)(O)O)CC6)CSc6ccccc6)c(S(=O)(=O)C(F)(F)F)c5)cc4)CC3)c2)c(-c2ccc(Cl)cc2)n1C(C)C
- viability, T/C (second compound 0.0316 µM, first compound 0.00949 µM): 92.9%
- viability, T/C (second compound 0.0316 µM, first compound 0.03 µM): 87.9%
- viability, T/C (second compound 0.0316 µM, first compound 0.0949 µM): 79.6%
- viability, T/C (second compound 0.0316 µM, first compound 0.3 µM): 67.8%
- viability, T/C (second compound 0.0316 µM, first compound 0.949 µM): 54.9%
- viability, T/C (second compound 0.0316 µM, first compound 3 µM): 44.2%
- viability, T/C (second compound 0.1 µM, first compound 0.00949 µM): 105%
- viability, T/C (second compound 0.1 µM, first compound 0.03 µM): 96.2%
- viability, T/C (second compound 0.1 µM, first compound 0.0949 µM): 70.6%
- viability, T/C (second compound 0.1 µM, first compound 0.3 µM): 69%
- viability, T/C (second compound 0.1 µM, first compound 0.949 µM): 49.1%
- viability, T/C (second compound 0.1 µM, first compound 3 µM): 37.8%
- viability, T/C (second compound 0.316 µM, first compound 0.00949 µM): 92.2%
- viability, T/C (second compound 0.316 µM, first compound 0.03 µM): 87.2%
- viability, T/C (second compound 0.316 µM, first compound 0.0949 µM): 76.1%
- viability, T/C (second compound 0.316 µM, first compound 0.3 µM): 62.2%
- viability, T/C (second compound 0.316 µM, first compound 0.949 µM): 48.5%
- viability, T/C (second compound 0.316 µM, first compound 3 µM): 35.9%
- viability, T/C (second compound 1 µM, first compound 0.00949 µM): 81%
- viability, T/C (second compound 1 µM, first compound 0.03 µM): 78%
- viability, T/C (second compound 1 µM, first compound 0.0949 µM): 64.8%
- viability, T/C (second compound 1 µM, first compound 0.3 µM): 48.9%
- viability, T/C (second compound 1 µM, first compound 0.949 µM): 36.1%
- viability, T/C (second compound 1 µM, first compound 3 µM): 28.1%
- viability, T/C (second compound 3.16 µM, first compound 0.00949 µM): 72.8%
- viability, T/C (second compound 3.16 µM, first compound 0.03 µM): 64.3%
- viability, T/C (second compound 3.16 µM, first compound 0.0949 µM): 45.8%
- viability, T/C (second compound 3.16 µM, first compound 0.3 µM): 37.6%
- viability, T/C (second compound 3.16 µM, first compound 0.949 µM): 29.6%
- viability, T/C (second compound 3.16 µM, first compound 3 µM): 19.6%
- viability, T/C (second compound 10 µM, first compound 0.00949 µM): 73.3%
- viability, T/C (second compound 10 µM, first compound 0.03 µM): 59.3%
- viability, T/C (second compound 10 µM, first compound 0.0949 µM): 41.7%
- viability, T/C (second compound 10 µM, first compound 0.3 µM): 34.5%
- viability, T/C (second compound 10 µM, first compound 0.949 µM): 23.2%
- viability, T/C (second compound 10 µM, first compound 3 µM): 15%

- IC50 (curve of compound): > 10000 nM
Compound: C#Cc1c(F)ccc2cc(O)cc(-c3ncc4c(N5CC6CCC(C5)N6)nc(OCC56CCCN5CC(F)C6)nc4c3F)c12 (centres undefined)
- viability, T/C (compound 0.0316 µM): 105% and 94.4% and 104%
- viability, T/C (compound 0.1 µM): 106% and 91.6% and 102%
- viability, T/C (compound 0.316 µM): 103% and 107% and 98.3%
- viability, T/C (compound 1 µM): 87.3% and 97.4% and 111%
- viability, T/C (compound 3.16 µM): 67.9% and 75.1% and 76.7%
- viability, T/C (compound 10 µM): 62.3% and 59.4% and 62.5%

— PubChem BioAssay AID1963425 (Molecular Pharmacology Branch, DTP, NCI, 2024)
